Consider two compounds from US20090181003A1, “Regulation of S6 Kinsase Protein Activity and Related Methods” (priority 2005, published 2009).

The structures appear in SMILES notation.

One experiment deals with S6K1 K516 acetylation. The experiment in a line: S6K1 K516 acetylation in serum-stimulated NIH 3T3 cells treated with signal transduction inhibitors (Ac-K516 immunoblot). The conditions noted are these: 50 nM Rapamycin, 20 μM LY294002 or 10 μM PD98059 30 minutes before serum stimulation, lysed after 1 hr. The class given is cell-based. Here is the method:
In this study, NIN3T3 cells were starved and stimulated with serum for various period of time. Total cell lysates were separated by SDS-PAGE and immunoblotted with acetyl-K516 antibodies. In FIG. 10B, the effect of various cell signalling inhibitors on K516 acetylation is shown. In this study, NIH3T3 cells were starved and treated with 50 nM Rapamycin (mTor inhibitor), 20 μM LY294002 (phosphatidylinositol 3′-kinase inhibitor), 10 μM PD98059 (MAP kinase inhibitor) or vehicle alone thirty minutes before stimulation with serum. Then, cells were stimulated with serum for one hour and lysed. The supernatants of total lysates were separated by SDS-PAGE and Western blotted with acetyl-K516 antibodies. […] The wtS6K and K516R mutants were transiently expressed in Hek293 cells. Immunoprecipitated recombinant S6Ks and total cell lysates were resolved by gel electrophoresis and immunoblotted with antibodies specific for EE tag, pT412 and actin.
Furthermore, the effect of signal transduction inhibitors on K516 acetylation was studied in NIH 3T3 cell. In this experiment, cells were serum starved and treated with rapamycin, LY and PD for 30 minutes before serum stimulation. Cells were lysed 1 hr hour after stimulation and the lysates separated by SDS-PAGE and immunoblotted with Ac-K516, pT412 antibodies.
(In general: Immunoblotting shows a protein as a band on a membrane.)

The subject of the next experiment is S6 kinases. The experiment in a line: S6 kinase acetylation in HEK 293 cells cotransfected with EE-tagged S6 kinases and p300 (anti-acetylated lysine immunoblot). The experiment is classed as cell-based. To be noted: HEK 293 cells with overexpressed p300; TSA 660 nM for 12 hours. Here is the method: In FIG. 2A, recombinant S6 kinases were acetylated in vitro using the purified acetyltransferase domain of p300 or full length PCAF and ^14C-labelled acetyl CoA. Proteins were resolved by SDS-PAGE and acetylated proteins were analysed by phosphorimaging (Bio-rad). In FIG. 2B, recombinant S6K2 or GST were subject to in vitro acetylation reactions with p300 and 14C AcCoA. Recombinant PKB/Akt, PKCa, PDK1 and PI3K (p85a/p110a) were purified using baculovirus expression system. In vitro acetylation assay was carried out as previously described. In FIG. 2D, HEK 293 cells were transfected with S6 kinases in the absence or presence of Gal4-p300 as shown. Cells were treated with medium containing either solvent control or TSA to a final concentration of 660 nM for twelve hours prior to harvesting. Recombinant S6 kinases were immunoprecipitated using the EE-antibody and acetylated S6 kinase was detected by western blotting with polyclonal acetylated lysine antibodies (Upstate). The level of immunoprecipitated S6K1 and S6K2 was analysed by reprobing the membranes with specific antibodies. The expression of Gal4-p300 was tested in total lysates using anti-Gal4 antibodies.
In order to test whether S6 kinase proteins are subject to acetylation within cells, HEK 293 cells were cotransfected with EE-tagged S6 kinases and p300. […]

For experiment [1], the target named is T1, recombinant purified S6K1 (Homo sapiens, UniProt P23443).
T1 construct: made in house; host or cells: insect cells (baculovirus)
Kind of experiment: In vitro kinase assay with recombinant purified S6K in presence or absence of deacetylase inhibitors. The conditions noted are these: presence or absence of TSA and nicotinamide. The class given is biochemical. How it is done:
(§1) (A) The cell lines indicated (see text) were treated with TSA and nicotinamide for eight hours. Following lysis, proteins were resolved by SDS-PAGE and western blots were probed as labelled to evaluate S6K activation. (B) MKOC cells (see text) were treated as in (A) and analysed by western blotting. S6K1 was also immunoprecipitated from lysates and subjected to immune complex kinase assay.
Firstly, that TSA is not a specific inhibitor of HDAC activity but that it is also a direct S6K inhibitor in the classical sense. […] In order to test the former explanation, that TSA is a direct S6K inhibitor, in vitro kinase assays were conducted using recombinant purified S6K in the presence or absence of TSA and nicotinamide (FIG. 6C).

The subject of the next experiment is S6 kinase. The experiment in a line: S6 kinase activation in C2C12 myoblasts by western blotting (pT412, phospho-rpS6), TSA dose course. The experiment is classed as cell-based. To be noted: 18 hours, doses of 500 nM TSA and above. How it is done:
In FIG. 6A (upper panel), C2C12 myoblasts were treated for 18 hours with increasing concentrations of TSA or with the structurally unrelated HDAC inhibitor, sodium butyrate. Endogenous S6 kinase activity was assessed by western blotting against pT412 and against phosho-rpS6. In another experiment, C2C12 cells were treated with 1 μM TSA or control for the times shown and S6 kinase activity was measured by in vitro kinase assay using purified ribosomes as substrate (FIG. 6B). A representative autoradiograph is shown beneath the graph.
Since phosphorylation of multiple residues in S6 kinases has a potent effect on their kinase activity, it was interesting to see whether acetylation, an alternative post-translational modification, may also modulate the S6 kinase enzyme activity. Although kinase acetylation has not been described to date, there are examples of enzymes whose activity is regulated by p300-mediated acetylation, including Fen 1 (Hasan et al. (2001) Mol. Cell. 7, 1221-1231) and DNA polymerase beta (Hasan et al. (2002) Mol. Cell. 10, 1213-1222). In order to test whether S6 kinase acetylation may affect its kinase activity in vivo, C2C12 myoblasts were treated with a dose course of TSA. S6 kinase activation was analysed by western blotting with an antibody specific for phospho-threonine 412 and also with an antibody against the phosphorylated form of rpS6. […]

For the next experiment, the system named is S6K. The experiment in a line: S6K activity after deacetylase inhibition in a range of cell types (western blot, immune complex kinase assay). The class given is cell-based. Here is the method:
as §1
(§2) Histone deacetylase inhibitors downregulate S6K activity in a range of different cell types. In order to test the model that S6K acetylation may be playing a role in its de-activation, the effect of TSA on S6K activity was analysed in a number of cell types, some of which contain mutations in the pathways leading to S6K activation, thus affording a genetic analysis of this phenomenon. […] PC-3 is a PTEN-null prostate cancer cell line in which basal PKB and S6K activation is high due to deregulation of PI3K signalling. […] The MKOC cell line was derived from a renal tumour removed from a Tsc2^−/− mouse. Since these cells lack Tsc2, S6K activity is uncoupled from both PKB and the tuberous sclerosis complex heterodimer. […] It should be noted that, although the same trend (reduced S6K phosphorylation and activity following treatment with deacetylase inhibitors) is seen in all the cell lines tested, the magnitude of this effect does vary. […]

A further experiment deals with 4EBP1 (target of mTOR). The experiment in a line: Phospho-4EBP1 blotting in MKOC cells. The class given is cell-based, mouse. To be noted: TSA treatment. How it is done:
as §1, §2

T1 sequence (P23443 whole entry): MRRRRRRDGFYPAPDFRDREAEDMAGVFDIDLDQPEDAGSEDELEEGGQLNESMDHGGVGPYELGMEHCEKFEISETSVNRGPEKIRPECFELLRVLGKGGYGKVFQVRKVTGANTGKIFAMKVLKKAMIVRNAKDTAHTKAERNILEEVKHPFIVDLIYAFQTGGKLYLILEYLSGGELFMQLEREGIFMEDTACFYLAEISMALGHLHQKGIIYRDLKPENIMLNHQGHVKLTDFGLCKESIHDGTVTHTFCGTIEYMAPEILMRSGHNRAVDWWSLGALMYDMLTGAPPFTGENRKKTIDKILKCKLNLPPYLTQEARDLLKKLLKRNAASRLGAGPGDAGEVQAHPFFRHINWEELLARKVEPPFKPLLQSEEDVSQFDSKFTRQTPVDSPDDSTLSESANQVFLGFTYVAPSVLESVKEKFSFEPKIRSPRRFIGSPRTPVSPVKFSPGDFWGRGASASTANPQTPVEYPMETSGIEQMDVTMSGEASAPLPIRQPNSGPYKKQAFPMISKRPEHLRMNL

Consider `COc1cccc(-c2cc(=O)c3ccccc3o2)c1N` [PD98059], for which, in the experiment on S6K1 K516 acetylation, the “acetylation of S6K1 at K516” value is “not affected”.
As for `CC(/C=C/C(=O)NO)=C\[C@@H](C)C(=O)c1ccc(N(C)C)cc1` [TSA, Trichostatin A], the “level of S6 kinase acetylation” value in the experiment on S6 kinases is reported as “significantly increased”. Also, the “S6K activity in vitro (direct kinase inhibition)” value in experiment [1] is “does not indicate that TSA inhibits S6K activity in vitro”. For the same compound, the “S6 kinase activation (phospho-threonine 412 and S6 protein phosphorylation)” value in the experiment on S6 kinase is given as “potently inhibited”. The S6K activity result in the experiment with S6K (MKOC cells (Tsc2-/- mouse renal tumour)) is “reduction of S6K activity”; in the experiment with S6K (PC-3 cells (PTEN-null prostate cancer cell line)), “inhibited”. Also, the phospho-4EBP1 phosphorylation status entry in the experiment on 4EBP1 (target of mTOR) is “unaffected”.
